The text below walks through data of publication PMC11926855, “Photochemistry of Receptor-Bound Flavin Resolved in Living Human Cells by Infrared Spectroscopy” (Journal of the American Chemical Society, 2025).

Molecules are shown by their SMILES.

The target in one assay is T1, pCRY-PHR (Chlamydomonas reinhardtii, UniProt Q42696).
T1 construct: gene CPH1; photolyase homology region (PHR) without CCT, mCherry fused as reporter; stably transfected HEK cells, also E. coli cells
As to the kind of experiment: light-induced in-cell ATR-FTIR difference spectroscopy (ICIRD). The format is cell-based. The following applies: living HEK cells, 37 °C, blue light; noncovalent; oxidized flavin to flavin neutral radical.

The target in assay [1] is T2, LOV (LOV sensor of aureochrome1a) (Phaeodactylum tricornutum, UniProt A0A140UHJ0, I28V, form not given).
T2 construct: isolated LOV sensor domain without bZIP effector; transiently transfected HEK cells, also E. coli cells and in vitro
The assay is described as above. The format is cell-based. The following applies: living HEK cells, 37 °C, blue light; covalent photoadduct with Cys287 on illumination, noncovalent in dark; also in vitro and E. coli cells.

For assay [2], the target named is T3, LOV (LOV sensor of aureochrome1a) (Phaeodactylum tricornutum, UniProt A0A140UHJ0, I28V).
T3 construct: isolated LOV sensor domain without bZIP effector; transiently transfected HEK cells, also E. coli cells and in vitro
As to the kind of experiment: light-induced FTIR difference spectroscopy in vitro. The format is binding. As to conditions: wild type compared with I264V; covalent photoadduct with Cys287 on illumination.

T1 sequence (Q42696 entry or part of it): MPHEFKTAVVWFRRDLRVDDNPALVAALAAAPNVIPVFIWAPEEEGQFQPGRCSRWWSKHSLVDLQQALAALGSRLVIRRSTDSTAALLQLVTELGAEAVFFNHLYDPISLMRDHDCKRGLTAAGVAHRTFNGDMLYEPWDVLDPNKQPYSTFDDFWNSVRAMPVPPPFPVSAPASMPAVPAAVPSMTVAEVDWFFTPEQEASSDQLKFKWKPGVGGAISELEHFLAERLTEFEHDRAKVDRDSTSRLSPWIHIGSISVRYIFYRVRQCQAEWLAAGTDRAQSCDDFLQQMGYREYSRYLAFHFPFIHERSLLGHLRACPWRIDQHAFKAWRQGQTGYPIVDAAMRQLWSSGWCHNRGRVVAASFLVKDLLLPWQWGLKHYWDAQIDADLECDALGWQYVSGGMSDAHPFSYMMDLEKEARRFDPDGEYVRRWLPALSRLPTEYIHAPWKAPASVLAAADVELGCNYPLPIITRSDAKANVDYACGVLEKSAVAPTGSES
T2 sequence (A0A140UHJ0 entry or part of it I28V, form open): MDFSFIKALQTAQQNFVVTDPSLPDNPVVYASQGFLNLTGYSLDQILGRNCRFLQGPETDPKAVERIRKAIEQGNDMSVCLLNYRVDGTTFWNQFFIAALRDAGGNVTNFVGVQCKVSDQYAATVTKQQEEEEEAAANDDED
T3 sequence (A0A140UHJ0 entry or part of it I28V): as the sequence (A0A140UHJ0 entry or part of it I28V, form open) above

Take `Cc1cc2nc3c(=O)[nH]c(=O)nc-3n(C[C@H](O)[C@H](O)[C@H](O)COP(=O)(O)OP(=O)(O)OC[C@H]3O[C@@H](n4cnc5c(N)ncnc54)[C@H](O)[C@@H]3O)c2cc1C` [flavin adenine dinucleotide]: the “light-induced in-cell ATR-FTIR difference spectroscopy (ICIRD)” value on pCRY-PHR was “photoreaction of the oxidized flavin to the flavin neutral radical in pCRY-PHR”. In the case of `Cc1cc2nc3c(=O)[nH]c(=O)nc-3n(C[C@H](O)[C@H](O)[C@H](O)COP(=O)(O)O)c2cc1C` [flavin mononucleotide], the “light-induced in-cell ATR-FTIR difference spectroscopy (ICIRD)” value in assay [1] was “formation of the cysteine adduct from the oxidized flavin”. Besides, the “light-induced FTIR difference spectroscopy in vitro” value in assay [2] is reported as “without altering the mechanism (Figure S6A)”.
